Measurements published in article PMC9322122, “Development of (4-Phenylamino)quinazoline Alkylthiourea Derivatives as Novel NF-κB Inhibitors” (Pharmaceuticals, 2022).
Entries after “also recorded” stand apart in the source; their conditions may differ.

Legend:
[1] = biological target: T1, TBK1 (Homo sapiens, UniProt Q9UHD2); experiment: Kinase selectivity profiling (Thermo Fisher); type: biochemical; details: ATP 100 μM, mean of duplicates
T1 construct: purchased Thermo Fisher Scientific (screening service)
Procedure: (§1) Tabl e S1. Selectivity profiling of compound 19 ag ainst the protein kinases known to regulate the NF-kB pathway ki nase % Inhibiti on at 2 µMa […]
(§2) aScreenings were perf or med as a servi ce at Thermo Fisher Scientific at an ATP concentrat ion of 100 μM. n.i., no inhi biti on. Data represent mean values of duplicat es that differed by less t han 7%.

[2] = biological target: T2, MAPK14 (p38 alpha) (Homo sapiens, UniProt Q16539); experiment: Kinase selectivity profiling (Thermo Fisher); type: biochemical; details: ATP 100 μM, mean of duplicates
T2 construct: purchased Thermo Fisher Scientific (screening service)
Procedure: as §1, §2

[3] = biological target: T3, PRKCI (PKC iota) (Homo sapiens, UniProt P41743); experiment: Kinase selectivity profiling (Thermo Fisher); type: biochemical; details: ATP 100 μM, n.i. = no inhibition
T3 construct: purchased Thermo Fisher Scientific (screening service)
Procedure: as §1, §2

[4] = biological target: T4, RIPK2 (Homo sapiens, UniProt O43353); experiment: Kinase selectivity profiling (Thermo Fisher); type: biochemical; details: ATP 100 μM, mean of duplicates
T4 construct: purchased Thermo Fisher Scientific (screening service)
Procedure: as §1, §2

[5] = biological target: T5, MAPK3 (ERK1) (Homo sapiens, UniProt P27361); experiment: Kinase selectivity profiling (Thermo Fisher); type: biochemical; details: ATP 100 μM, mean of duplicates
T5 construct: purchased Thermo Fisher Scientific (screening service)
Procedure: as §1, §2

[6] = biological target: T6, MAP3K14 (NIK) (Homo sapiens, UniProt Q99558); experiment: Kinase selectivity profiling (Thermo Fisher); type: biochemical; details: ATP 100 μM, mean of duplicates
T6 construct: purchased Thermo Fisher Scientific (screening service)
Procedure: as §1, §2

[7] = biological target: T7, IKBKE (IKK epsilon) (Homo sapiens, UniProt Q14164); experiment: Kinase selectivity profiling (Thermo Fisher); type: biochemical; details: ATP 100 μM, mean of duplicates
T7 construct: purchased Thermo Fisher Scientific (screening service)
Procedure: as §1, §2

[8] = biological target: T8, PRKCZ (PKC zeta) (Homo sapiens, UniProt Q05513); experiment: Kinase selectivity profiling (Thermo Fisher); type: biochemical; details: ATP 100 μM, mean of duplicates
T8 construct: purchased Thermo Fisher Scientific (screening service)
Procedure: as §1, §2

[9] = biological target: T9, IRAK4 (Homo sapiens, UniProt Q9NWZ3); experiment: Kinase selectivity profiling (Thermo Fisher); type: biochemical; details: ATP 100 μM, mean of duplicates
T9 construct: purchased Thermo Fisher Scientific (screening service)
Procedure: as §1, §2

[10] = biological target: T10, PRKCQ (PKC theta) (Homo sapiens, UniProt Q04759); experiment: Kinase selectivity profiling (Thermo Fisher); type: biochemical; details: ATP 100 μM, n.i. = no inhibition
T10 construct: purchased Thermo Fisher Scientific (screening service)
Procedure: as §1, §2

[11] = biological target: T11, IKBKB (IKK beta) (Homo sapiens, UniProt O14920); experiment: Kinase selectivity profiling (Thermo Fisher); type: biochemical; details: ATP 100 μM, mean of duplicates
T11 construct: purchased Thermo Fisher Scientific (screening service)
Procedure: as §1, §2

[12] = biological target: T12, MAP3K7/MAP3K7IP1 (TAK1-TAB1) (Homo sapiens, UniProt O43318); experiment: Kinase selectivity profiling (Thermo Fisher); type: biochemical; details: ATP 100 μM, mean of duplicates
T12 construct: purchased Thermo Fisher Scientific (screening service)
Procedure: as §1, §2

[13] = biological target: T13, RPS6KA1 (RSK1) (Homo sapiens, UniProt Q15418); experiment: Kinase selectivity profiling (Thermo Fisher); type: biochemical; details: ATP 100 μM, mean of duplicates
T13 construct: purchased Thermo Fisher Scientific (screening service)
Procedure: as §1, §2

[14] = biological target: T14, GSK3B (GSK3 beta) (Homo sapiens, UniProt P49841); experiment: Kinase selectivity profiling (Thermo Fisher); type: biochemical; details: ATP 100 μM, mean of duplicates
T14 construct: purchased Thermo Fisher Scientific (screening service)
Procedure: as §1, §2

[15] = biological target: T15, CHUK (IKK alpha) (Homo sapiens, UniProt O15111); experiment: Kinase selectivity profiling (Thermo Fisher); type: biochemical; details: ATP 100 μM, mean of duplicates
T15 construct: purchased Thermo Fisher Scientific (screening service)
Procedure: as §1, §2

[16] = biological target: T16, IRAK1 (Homo sapiens, UniProt P51617); experiment: Kinase selectivity profiling (Thermo Fisher); type: biochemical; details: ATP 100 μM, mean of duplicates
T16 construct: purchased Thermo Fisher Scientific (screening service)
Procedure: as §1, §2

[17] = system: phospho-IKKα/β; experiment: Western blot phospho-IKKα/β in dTHP-1 cells; type: cell-based, human; details: 7.5 µM; LPS-stimulated dTHP-1 cells
Procedure: Cells were lysed in the commercial RIPA Buffer (Thermo Fisher Scientific, Waltham, MA, USA) and then centrifuged at 14,000× g for 20 min. […] Antibodies used in this study were phospho-NF-κB p65 (S468; catalog no. 3039), phospho-NF-κB p65 (S536; catalog no. 3033), phospho-IKKα/β (catalog no. 2697), and IκB (catalog no. 9242) from Cell Signaling Technology (Beverly, MA, USA); GAPDH from ABclonal (catalog no. A10868; Woburn, MA, USA). The labeled signals were determined using an enhanced chemiluminescence system (UVP, Upland, CA, USA). The experiments were performed at least two times in triplicate, providing basically the same results.
The dTHP−1 cells were incubated with DMSO (0.1%), 19 (7.5 µM), or CAPE (10 µM) in medium for 3 h and then stimulated with or without LPS (0.1 µg/mL) for another 30 min. (A) The levels of phospho-NF-κB p65 (S536), phospho-IKKα/β, IκB, and GAPDH were determined by Western blot. The normalized (B) phospho-NF-κB p65 (S536), (C) phospho-IKKα/β, and (D) IκB levels were quantified. All data are expressed as mean ± SEM (n = 3); * p < 0.05 compared with the DMSO + LPS group.

[18] = system: TNFα production; experiment: TNFα production in LPS-activated dTHP-1 cells (ELISA); type: cell-based; details: Homo sapiens
Procedure: The HEK-293 (ATCC Cat# CRL-1573, RRID:CVCL_0045) and human monocytic THP−1 cells (ATCC Cat# TIB-202, RRID:CVCL_0006) were, respectively, cultured in DMEM and RPMI 1640 media supplemented with 10% fetal bovine serum, 2 mM L-glutamine, and 1× Antibiotic-Antimycotic at 37 °C in a humidified incubator with 5% CO2. THP−1 cells were differentiated by 100 nM phorbol-12-myristate-13-acetate (PMA) for 4 h and then rested for 44 h as dTHP−1 cells.
The dTHP−1 cells were treated with indicated compounds for 3 h and then activated with or without 100 ng/mL lipopolysaccharide (LPS; E. coli 0111:B4) for another 24 h. The levels of human IL-6 and TNFα in supernatants were measured by DuoSet® ELISA Development System (R&D systems, Minneapolis, MN, USA) according to the manufacturer’s protocol.

[19] = Cell viability (WST-1), A549; type: cell-based; details: human, A549 cells, mean ± SEM, n = 3
Procedure: Cells were incubated with the WST-1 reagent (Thermo Fisher Scientific, Waltham, MA, USA) at 37 °C for 2 h. The cell viability was determined by spectrophotometer at 450 nm.

T15 sequence (O15111 whole entry): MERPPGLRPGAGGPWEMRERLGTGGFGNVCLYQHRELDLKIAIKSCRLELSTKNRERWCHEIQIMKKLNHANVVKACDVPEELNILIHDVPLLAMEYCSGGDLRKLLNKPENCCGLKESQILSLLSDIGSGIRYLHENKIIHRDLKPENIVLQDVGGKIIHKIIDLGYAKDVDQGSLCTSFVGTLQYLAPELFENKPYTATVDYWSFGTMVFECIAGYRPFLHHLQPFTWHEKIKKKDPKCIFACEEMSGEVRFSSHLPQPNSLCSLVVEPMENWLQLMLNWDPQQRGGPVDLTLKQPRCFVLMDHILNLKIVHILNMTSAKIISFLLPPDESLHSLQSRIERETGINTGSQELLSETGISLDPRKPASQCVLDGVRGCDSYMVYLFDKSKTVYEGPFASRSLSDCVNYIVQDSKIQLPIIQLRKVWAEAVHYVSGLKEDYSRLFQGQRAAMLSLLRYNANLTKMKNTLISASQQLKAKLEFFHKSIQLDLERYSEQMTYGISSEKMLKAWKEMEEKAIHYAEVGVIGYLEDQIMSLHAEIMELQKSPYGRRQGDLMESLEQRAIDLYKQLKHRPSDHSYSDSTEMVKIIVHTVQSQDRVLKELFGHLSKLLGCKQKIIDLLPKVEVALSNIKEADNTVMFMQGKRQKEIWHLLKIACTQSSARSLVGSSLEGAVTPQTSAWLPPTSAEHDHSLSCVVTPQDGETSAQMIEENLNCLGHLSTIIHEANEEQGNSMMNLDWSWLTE
T14 sequence (P49841 whole entry): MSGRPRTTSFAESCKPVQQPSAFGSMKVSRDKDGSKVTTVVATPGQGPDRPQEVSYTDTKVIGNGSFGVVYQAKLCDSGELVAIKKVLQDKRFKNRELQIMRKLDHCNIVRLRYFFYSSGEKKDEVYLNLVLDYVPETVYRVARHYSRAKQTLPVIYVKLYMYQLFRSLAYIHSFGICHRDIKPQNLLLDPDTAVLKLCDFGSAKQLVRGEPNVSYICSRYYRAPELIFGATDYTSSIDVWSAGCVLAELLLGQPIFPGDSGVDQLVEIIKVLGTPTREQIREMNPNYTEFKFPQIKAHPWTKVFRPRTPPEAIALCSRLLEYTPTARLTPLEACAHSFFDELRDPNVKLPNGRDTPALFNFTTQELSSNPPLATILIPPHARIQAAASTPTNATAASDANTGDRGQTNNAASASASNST
T16 sequence (P51617 whole entry): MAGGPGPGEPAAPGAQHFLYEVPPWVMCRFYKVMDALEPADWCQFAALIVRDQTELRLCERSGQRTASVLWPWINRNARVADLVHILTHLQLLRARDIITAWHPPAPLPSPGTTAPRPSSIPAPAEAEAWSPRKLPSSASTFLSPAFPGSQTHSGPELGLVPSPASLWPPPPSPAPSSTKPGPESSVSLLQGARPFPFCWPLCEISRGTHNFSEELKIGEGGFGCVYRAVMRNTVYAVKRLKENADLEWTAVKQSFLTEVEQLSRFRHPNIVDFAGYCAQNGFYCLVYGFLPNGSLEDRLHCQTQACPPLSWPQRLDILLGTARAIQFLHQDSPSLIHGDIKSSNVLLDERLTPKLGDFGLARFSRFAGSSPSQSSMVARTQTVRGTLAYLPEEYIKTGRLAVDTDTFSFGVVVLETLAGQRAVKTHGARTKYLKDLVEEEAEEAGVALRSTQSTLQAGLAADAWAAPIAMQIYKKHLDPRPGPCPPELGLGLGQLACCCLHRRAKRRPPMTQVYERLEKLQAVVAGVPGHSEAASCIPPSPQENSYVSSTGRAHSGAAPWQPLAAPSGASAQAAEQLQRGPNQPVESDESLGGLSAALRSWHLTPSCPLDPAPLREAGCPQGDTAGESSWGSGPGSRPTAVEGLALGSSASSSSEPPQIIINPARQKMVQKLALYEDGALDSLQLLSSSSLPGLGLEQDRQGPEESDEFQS
T11 sequence (O14920 whole entry): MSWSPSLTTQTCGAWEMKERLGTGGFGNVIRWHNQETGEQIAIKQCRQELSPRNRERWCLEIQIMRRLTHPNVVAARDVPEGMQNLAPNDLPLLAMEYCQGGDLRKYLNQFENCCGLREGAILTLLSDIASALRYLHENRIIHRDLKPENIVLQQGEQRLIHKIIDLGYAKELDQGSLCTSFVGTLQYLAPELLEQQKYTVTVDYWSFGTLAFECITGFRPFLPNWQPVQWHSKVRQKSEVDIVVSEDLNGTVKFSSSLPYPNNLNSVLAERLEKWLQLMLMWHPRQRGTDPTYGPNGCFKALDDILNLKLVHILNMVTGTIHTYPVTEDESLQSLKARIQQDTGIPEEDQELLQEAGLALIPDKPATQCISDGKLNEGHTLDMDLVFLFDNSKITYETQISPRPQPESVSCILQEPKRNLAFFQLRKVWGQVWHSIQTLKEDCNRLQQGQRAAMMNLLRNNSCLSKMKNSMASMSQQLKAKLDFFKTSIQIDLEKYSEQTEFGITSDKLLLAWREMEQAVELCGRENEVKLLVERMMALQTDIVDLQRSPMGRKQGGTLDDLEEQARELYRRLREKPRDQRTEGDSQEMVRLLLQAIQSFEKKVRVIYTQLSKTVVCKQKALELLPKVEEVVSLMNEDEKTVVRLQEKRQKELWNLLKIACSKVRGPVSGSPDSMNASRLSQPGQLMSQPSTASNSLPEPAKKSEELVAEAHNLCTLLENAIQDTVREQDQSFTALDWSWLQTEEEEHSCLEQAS
T13 sequence (Q15418 whole entry): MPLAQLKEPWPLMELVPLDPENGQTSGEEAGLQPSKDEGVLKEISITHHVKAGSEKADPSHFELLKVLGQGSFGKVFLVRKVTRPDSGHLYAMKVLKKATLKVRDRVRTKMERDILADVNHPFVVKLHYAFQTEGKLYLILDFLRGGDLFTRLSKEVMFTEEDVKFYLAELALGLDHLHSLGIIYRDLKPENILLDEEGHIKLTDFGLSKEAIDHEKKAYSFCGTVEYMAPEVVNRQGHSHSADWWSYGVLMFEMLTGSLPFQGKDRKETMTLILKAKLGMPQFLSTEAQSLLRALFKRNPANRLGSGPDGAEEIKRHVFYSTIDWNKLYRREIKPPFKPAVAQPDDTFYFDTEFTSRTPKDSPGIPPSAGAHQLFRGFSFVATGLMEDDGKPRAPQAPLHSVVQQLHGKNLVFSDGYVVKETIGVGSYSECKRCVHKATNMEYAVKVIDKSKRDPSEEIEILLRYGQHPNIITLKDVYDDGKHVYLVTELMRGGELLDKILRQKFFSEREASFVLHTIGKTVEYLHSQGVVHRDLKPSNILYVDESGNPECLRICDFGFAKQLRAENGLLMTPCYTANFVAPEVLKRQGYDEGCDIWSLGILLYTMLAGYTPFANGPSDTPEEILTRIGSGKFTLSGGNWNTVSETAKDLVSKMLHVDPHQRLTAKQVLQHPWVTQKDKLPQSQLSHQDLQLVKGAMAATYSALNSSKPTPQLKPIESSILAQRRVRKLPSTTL
T2 sequence (Q16539 whole entry): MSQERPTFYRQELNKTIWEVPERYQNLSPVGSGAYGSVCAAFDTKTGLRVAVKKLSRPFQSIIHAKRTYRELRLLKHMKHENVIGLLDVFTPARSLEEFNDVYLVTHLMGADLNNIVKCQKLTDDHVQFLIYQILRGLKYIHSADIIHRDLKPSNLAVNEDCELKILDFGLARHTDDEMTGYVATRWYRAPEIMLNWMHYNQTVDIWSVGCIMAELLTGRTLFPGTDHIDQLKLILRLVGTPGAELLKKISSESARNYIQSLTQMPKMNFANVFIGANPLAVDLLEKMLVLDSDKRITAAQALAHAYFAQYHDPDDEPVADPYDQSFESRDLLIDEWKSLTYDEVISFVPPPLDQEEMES
T7 sequence (Q14164 whole entry): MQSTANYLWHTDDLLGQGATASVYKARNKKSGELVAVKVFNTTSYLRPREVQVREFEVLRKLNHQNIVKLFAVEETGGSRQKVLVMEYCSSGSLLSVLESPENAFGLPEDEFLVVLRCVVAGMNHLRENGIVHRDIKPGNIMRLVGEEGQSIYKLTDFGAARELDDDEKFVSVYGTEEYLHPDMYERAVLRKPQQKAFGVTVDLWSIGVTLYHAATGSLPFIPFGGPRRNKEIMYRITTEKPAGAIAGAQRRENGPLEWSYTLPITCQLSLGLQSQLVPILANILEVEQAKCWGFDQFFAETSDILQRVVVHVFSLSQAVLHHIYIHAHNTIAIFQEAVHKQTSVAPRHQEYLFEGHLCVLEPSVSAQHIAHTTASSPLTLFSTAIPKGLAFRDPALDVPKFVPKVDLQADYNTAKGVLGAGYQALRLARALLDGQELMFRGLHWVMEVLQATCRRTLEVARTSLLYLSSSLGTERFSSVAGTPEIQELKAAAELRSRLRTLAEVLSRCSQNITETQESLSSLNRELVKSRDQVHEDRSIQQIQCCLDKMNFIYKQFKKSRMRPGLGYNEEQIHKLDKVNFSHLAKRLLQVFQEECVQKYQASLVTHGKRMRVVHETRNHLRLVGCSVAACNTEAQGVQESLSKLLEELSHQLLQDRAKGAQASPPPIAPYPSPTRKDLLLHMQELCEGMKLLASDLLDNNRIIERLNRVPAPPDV
T4 sequence (O43353 whole entry): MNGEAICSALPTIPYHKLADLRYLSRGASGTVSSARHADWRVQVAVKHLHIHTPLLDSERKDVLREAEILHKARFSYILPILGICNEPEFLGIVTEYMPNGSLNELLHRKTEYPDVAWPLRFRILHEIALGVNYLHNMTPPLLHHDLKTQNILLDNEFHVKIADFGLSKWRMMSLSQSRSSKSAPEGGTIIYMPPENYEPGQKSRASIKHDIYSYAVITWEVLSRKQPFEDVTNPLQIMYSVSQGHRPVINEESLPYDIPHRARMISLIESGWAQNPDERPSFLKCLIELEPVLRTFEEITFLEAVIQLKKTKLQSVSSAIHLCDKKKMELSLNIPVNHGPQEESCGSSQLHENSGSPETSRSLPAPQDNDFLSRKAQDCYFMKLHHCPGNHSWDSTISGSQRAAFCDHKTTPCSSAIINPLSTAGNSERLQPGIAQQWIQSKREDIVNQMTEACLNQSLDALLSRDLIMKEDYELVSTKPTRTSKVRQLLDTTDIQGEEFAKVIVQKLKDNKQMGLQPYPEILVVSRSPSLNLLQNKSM

With `S=C(Nc1ccc2ncnc(Nc3cccc(Cl)c3)c2c1)NC1CCCC1` [Compound 19, 1-(4-((3-Chlorophenyl)amino)quinazolin-6-yl)-3-cyclopentylthiourea] the inhibition at 2 µM [1] was 8%, the inhibition at 2 µM [2] was 4% and the “% Inhibition at 2 µM, PRKCI (PKC iota)” value [3] was “n.i”. For the same compound, the inhibition at 2 µM [4] was 29%, the inhibition at 2 µM [5] was 2% and the inhibition at 2 µM [6] was 9%. The inhibition at 2 µM [7] was 3%, the inhibition at 2 µM [8] was 3% and the inhibition at 2 µM [9] was 5%. For the same compound, the “% Inhibition at 2 µM, PRKCQ (PKC theta)” value [10] was “n.i”, the inhibition at 2 µM [11] was 3% and the inhibition at 2 µM [12] was 3%. For the same compound, the inhibition at 2 µM [13] was 1%, the inhibition at 2 µM [14] was 4% and the inhibition at 2 µM [15] was 6%. The inhibition at 2 µM [16] was 2%, the “Activation of IKKα/β (phospho-IKKα/β)” value [17] was “had no effects on IKKα/β-IκB signaling; also recorded: neither blocked the activation of IKKα/β” and the inhibition at 7.5 µM ([18]; 7.5 μM, LPS 100 ng/mL for 24 h, dTHP-1 cells, read-out: TNFα Production Inh % (7.5 μM)) was 82.5 ± 5.6%. It also gave an inhibition at 15 µM ([18]; 15 μM, LPS 100 ng/mL for 24 h, dTHP-1 cells, read-out: TNFα Production Inh % (15 μM)) of 91.5 ± 2.5%, an IC50 ([18]; LPS-activated dTHP-1 cells, 24 h) of 4 ± 0.2 µM and a viability at 10 µM [19] of 99.9 ± 1.6%.
